Earlier results on 2 compounds are cited in patent publication US11304898B2, “Method of treating carcinoma” (SUN PHARMA ADVANCED RESEARCH COMPANY LTD, priority 2015, dated 2022).

In series [1] the test system is bile tract cancer. The note with it: Phase II studies, bile tract cancer patients.
Series [2] concerns bile tract cancer. The conditions noted are these: EORTC study.

Consider `O=c1[nH]cc(F)c(=O)[nH]1` [Example 5-FU, 5-Fluorouracil], for which the achieved response rate entry in the series with bile tract cancer [1] was “less than 20%”.

For `CO[C@@]12[C@H](COC(N)=O)C3=C(C(=O)C(C)=C(N)C3=O)N1C[C@@H]1N[C@@H]12` [Mit-C, mitomycin-C], the objective response rate in the series on bile tract cancer [2] is 10%.
